In EP0866656B1, “USE OF N-SUBSTITUTED PYRIDONES AS TUMOR NECROSIS FACTOR ALPHA INHIBITORS” (MARGOLIN, Solomon B., priority 1995, dated 1997):
Several values for one entry are separate records, joined by “and”; a condition that tells them apart may be missing. Identical values can stand only once.

Tests used:
human T cells = details: cited from earlier work; for inhibition of T cell activation (proliferation and IL-2 secretion): anti-CD3 antibody
TNF-α [1] = details: cited from earlier work
mouse T cells = details: cited from earlier work; for inhibition of T cell activation (proliferation and IL-2 secretion): anti-CD3 antibody
THP-1 cells = details: LPS-activated THP-1 cells; read-out: 1C50S, inhibition of TNF-α secretion; cited from earlier work
TNF-α [2] = details: oral dosing, serum TNF-α; cited from earlier work
TNF-α [3] = experiment: TNF-α synthesis within lysed macrophages, ELISA (Example II); type: cell-based, murine; details: 60 minutes
Experimental: In order to determine the direct impact of graded concentrations of pirfenidone upon the synthesis of TNF-α within the cytoplasm of murine macrophages, cell cultures of macrophages, grown in appropriate culture media, were treated with the respective concentrations pirfenidone for 60 minutes: (1) without exposure to LPS (controls) and (2) exposure to 1.0 pg/ml of LPS (E. coli.). Promptly after an exposure for 60 minutes, (a) the macrophages were separated from the culture medium by centrifugation, and (b) the macrophages were lysed. Subsequently, the lysed contents (cell cytoplasm and nucleus) from the macrophage cells were assayed via ELISA for TNF-α levels.

TNF-α [4] = experiment: In vivo induction of circulating (serum) TNF-α by LPS in mice
Experimental: This model is a modification of that previously described for the in vivo induction of circulating TNF-α, (Haranaka et al., Cancer Immunol. Immunother, 18:87-90,1984).
The bioassays for TNF-α were confirmed in monitoring tests by using a modification of the basic sandwich ELISA method (Winston et al., "Current Protocols in Molecular Biology," page 11.2.1, Ausubel et al., Ed. 1987.) All other plasma levels of TNF were measured using a modification of the basic sandwich ELISA method (Winston et al., "Current Protocols in Molecular Biology," Pg. 11.2.1, Ausubel et al., Ed. 1987.).
The LPS was injected intravenously into the mice at a dosage of 2.5 micrograms (in a volume of […] from a stock solution of 100 micrograms per […]) per mouse, and the Pirfenidone was administered immediately thereafter. The mice were then bled by cardiac puncture 90 minutes later. Subsequently, the serum was analyzed for TNF-α by a ELISA kit (Endogen).

WEHI 164 cells = experiment: Inhibition of synthesis and/or release of TNF-α from WEHI 164 cells; type: cell-based; details: in vitro, 33-900 micrograms/milliliter
Text: (§1) In vitro, pirfenidone at concentrations of 33-900 micrograms/milliliter inhibited the synthesis and/or release of excessive and pathophysiologic amounts of TNF-α from WEHI 164 cells (Table 1, page 40). […]
(§2) The ability of pirfenidone and related compounds to block the synthesis and the release of TNF-α from macrophages, as well as other cells, was bioassayed by the method of Morgan, Mills, D.L. Lefkowitz, and S.S. Lefkowitz ("An Improved Colorimetric Assay for Tumor Necrosis Factor Using […] Cells Cultured on Novel Microtiter Plates," Jour. Immunol. Method., 145:259-262, 1991).

[5] = Lethality caused by LPS plus D-galactosamine in mice (Example IV); type: in vivo
TNF-α [6] = experiment: TNF induction by macrophages exposed to LPS (TNF bioassay of culture medium); type: cell-based, murine; details: for TNF induction by macrophages exposed to LPS, Mean +/- S.E.: mean of experiments 1-6
Text: (§3) The reduction was directly related to the concentration of pirfenidone in the culture media.
as §2

TNF-α [7] = experiment: Endotoxin [LPS] shock in animals (Example III); type: in vivo; details: i.p. dosages of 30-400 milligrams per kilogram of body weight
macrophages = experiment: Toxicity to macrophages in culture; type: cell-based, murine; details: 0.9 mg/ml
Text: as §3

[8] = Diffusion capacity of the lungs (serial DLCO) in patients with pulmonary dysfunction; type: in vivo; details: oral, preliminary tests
[9] = system: WEHI neoplastic fibroblast cells; experiment: Killing of WEHI neoplastic fibroblast cells by TNF-α; type: cell-based; details: in vitro, 33 to 300 micrograms/milliliter
Text: as §1

OCc1cc(C(O)CNCCCCCCOCCCCc2ccccc2)ccc1O (stereo not shown) [salmeterol]
inhibition of T cell activation (proliferation and IL-2 secretion) (human T cells): able to inhibit | T cell inhibition, fold less potent than that for TNF-α production (human T cells): about 10 fold | inhibition of serum TNF-α levels (TNF-α [1]; LPS/galactosamine endotoxic shock): up to 94% | animals protected from the lethal effects of the LPS/galactosamine mixture (TNF-α [1]; in vivo): less than 50% | inhibition of T cell activation (proliferation and IL-2 secretion) (mouse T cells): able to inhibit | T cell inhibition, fold less potent than that for TNF-α production (mouse T cells): about 10 fold | IC50 (THP-1 cells): ~100 nM | duration of efficacy (TNF-α [2]): 3 h

CC(C)(C)NCC(O)c1ccc(O)c(CO)c1 (stereo not shown) [albuterol]
inhibition of T cell activation (proliferation and IL-2 secretion) (human T cells): completely inactive | inhibition of T cell activation (proliferation and IL-2 secretion) (mouse T cells): completely inactive | duration of efficacy (TNF-α [2]): much shorter duration of action

Cc1ccc(=O)n(-c2ccccc2)c1 [pirfenidone, 5-Methyl-1-phenyl-2-(1H)-pyridone]
LPS induced rise in TNF-α synthesis within cytoplasm and nucleus of macrophages (TNF-α [3]; LPS (E. coli.) 1.0 pg/ml, concentration related, P< 0.01): inhibition | levels of TNF-α within the cytoplasm of the macrophages (TNF-α [3]; controls, no exposure to LPS, 0.9 mg/ml): only baseline levels were found | inhibition of the rise in TNF-α serum levels as compared to Control Group (TNF-α [4]; LPS 2.5 micrograms i.v. per mouse, bled 90 minutes later): 50% | formation and release of TNF-α into the circulation (TNF-α [4]; mice, 200 milligrams per kilogram intraperitoneal or greater, maintained for hours): complete blockage | efficacy when given orally (rise in TNF-α serum levels) (TNF-α [4]; oral, same dosages): effective in the same dosages | synthesis and/or release of excessive and pathophysiologic amounts of TNF-α from WEHI 164 cells (WEHI 164 cells): inhibited | serum levels of TNF-α in the surviving mice ([5]; 300 mg/kg i.p. 30 minutes prior to LPS plus D-galactosamine): approached normal baseline levels | mortality ([5]; 300 mg/kg i.p. 30 minutes prior to i.v. LPS plus 600mg/kg i.p. D-galactosamine, observed 2 days, 100.0% without pirfenidone): 10.0% | TNF induction by macrophages exposed to LPS, Mean +/- S.E. (TNF-α [6]; Pirfenidone 100 micrograms/ml): 144+/-29 Relative TNF Units | TNF induction by macrophages exposed to LPS (TNF-α [6]; Pirfenidone 100 micrograms/ml, pre-incubation 0 hours): 109 Relative TNF Units and 87 Relative TNF Units | TNF induction by macrophages exposed to LPS (TNF-α [6]; Pirfenidone 100 micrograms/ml, pre-incubation 24 hours): 209 Relative TNF Units | TNF induction by macrophages exposed to LPS, Mean +/- S.E. (TNF-α [6]; Pirfenidone 300 micrograms/ml): 84+/-31 Relative TNF Units | TNF induction by macrophages exposed to LPS (TNF-α [6]; Pirfenidone 300 micrograms/ml, pre-incubation 24 hours): 143 Relative TNF Units | TNF induction by macrophages exposed to LPS, Mean +/- S.E. (TNF-α [6]; Pirfenidone 900 micrograms/ml): 43+/-18 Relative TNF Units | TNF induction by macrophages exposed to LPS (TNF-α [6]; Pirfenidone 900 micrograms/ml, pre-incubation 24 hours): 111 Relative TNF Units | level of TNF-α secreted into the culture medium (TNF-α [6]; thioglycollate-induced murine peritoneal macrophages exposed to LPS, P<0.01): markedly reduced level | pathophysiological toxic effects of TNF-α (endotoxin [LPS] shock) (TNF-α [7]): inhibited or completely blocked | toxicity with macrophages (macrophages): No toxicity was apparent | diffusion capacity of the lungs as measured by serial DLCO determinations [8]: marked, rapid and consistent improvement | killing of WEHI neoplastic fibroblast cells by TNF-α [9]: did not inhibit
